Test results taken from patent publication US20250346576A1, “KCNT1 INHIBITORS COMPRISING A PYRAZOLE CORE AND METHODS OF USE” (PRAXIS PRECISION MEDICINES, INC., priority 2022, published 2025).

Target: T1, KCNT1 (KNa1.1, Slack) (Homo sapiens, UniProt Q5JUK3)
T1 construct: expressed in transfected cells; host or cells: HEK-TREX (tetracycline inducible cell line)
T1 sequence (Q5JUK3 1-1230): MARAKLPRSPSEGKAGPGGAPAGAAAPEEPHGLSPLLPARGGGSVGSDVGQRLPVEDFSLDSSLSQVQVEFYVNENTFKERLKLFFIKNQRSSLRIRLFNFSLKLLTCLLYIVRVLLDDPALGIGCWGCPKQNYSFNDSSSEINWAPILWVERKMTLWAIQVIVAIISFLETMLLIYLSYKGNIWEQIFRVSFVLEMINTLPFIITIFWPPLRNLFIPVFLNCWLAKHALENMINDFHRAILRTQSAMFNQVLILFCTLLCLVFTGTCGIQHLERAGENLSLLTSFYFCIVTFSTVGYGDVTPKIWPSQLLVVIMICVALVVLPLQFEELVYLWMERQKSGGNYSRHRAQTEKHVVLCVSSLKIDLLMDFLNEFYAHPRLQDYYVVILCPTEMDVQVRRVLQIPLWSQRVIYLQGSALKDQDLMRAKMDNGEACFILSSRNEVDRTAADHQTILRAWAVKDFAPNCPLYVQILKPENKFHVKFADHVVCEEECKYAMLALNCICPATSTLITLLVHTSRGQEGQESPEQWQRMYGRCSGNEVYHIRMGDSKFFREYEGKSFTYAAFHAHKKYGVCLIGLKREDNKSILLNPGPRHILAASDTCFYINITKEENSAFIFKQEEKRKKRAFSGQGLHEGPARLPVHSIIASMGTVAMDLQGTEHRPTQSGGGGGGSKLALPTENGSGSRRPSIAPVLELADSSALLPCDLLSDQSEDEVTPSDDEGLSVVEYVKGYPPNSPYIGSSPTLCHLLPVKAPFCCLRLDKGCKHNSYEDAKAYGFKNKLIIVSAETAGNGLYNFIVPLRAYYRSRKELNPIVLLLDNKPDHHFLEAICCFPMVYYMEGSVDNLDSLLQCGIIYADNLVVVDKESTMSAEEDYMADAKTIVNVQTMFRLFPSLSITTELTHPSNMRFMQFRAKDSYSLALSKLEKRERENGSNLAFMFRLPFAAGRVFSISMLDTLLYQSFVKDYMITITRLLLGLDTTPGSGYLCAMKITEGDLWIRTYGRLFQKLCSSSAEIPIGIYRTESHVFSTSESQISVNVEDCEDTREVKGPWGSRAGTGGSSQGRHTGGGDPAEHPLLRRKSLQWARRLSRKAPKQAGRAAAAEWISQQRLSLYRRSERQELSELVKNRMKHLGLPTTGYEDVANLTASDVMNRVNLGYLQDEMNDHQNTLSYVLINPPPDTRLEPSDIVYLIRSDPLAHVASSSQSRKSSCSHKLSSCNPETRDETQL
Assay: KCNT1 patch clamp assay (SyncroPatch 384PE, tetracycline inducible HEK-TREX cell line)
Type: cell-based
Conditions: WT KCNT1, HEK-TREX cells, perforated patch, step from -80 mV to 0 mV, room temperature; read-out: WT (KCNT1 inhibition IC50)
Method: Inhibition of KCNT1 (KNa1.1, Slack) was evaluated using a tetracycline inducible cell line (HEK-TREX). Currents were recorded using the SyncroPatch 384PE automated, patch clamp system. Pulse generation and data collection were performed with PatchController384 V1.3.0 and DataController384 V1.2.1 (Nanion Technologies). The access resistance and apparent membrane capacitance were estimated using built-in protocols. Current was recorded in perforated patch mode (10 μM escin) from a population of cells. The cells were lifted, triturated, and resuspended at 800,000 cells/ml. The cells were allowed to recover in the cell hotel prior to experimentation. Currents were recorded at room temperature. The external solution contained the following (in mM): NaCl 105, NMDG 40, KCl 4, MgCl2 1, CaCl2 5, and HEPES 10 (pH=7.4, Osmolarity ˜300 mOsm). The extracellular solution was used as the wash, reference, and compound delivery solution. The internal solution contained the following (in mM): NaCl 70, KF 70, KCl 10, EGTA 5, HEPES 5, and Escin 0.01 (pH=7.2, Osmolarity ˜295 mOsm). Escin is made at a 5 mM stock in water, aliquoted, and stored at −20° C. The compound plate was created at 2× concentrated in the extracellular solution. The compound was diluted to 1:2 when added to the recording well. The amount of DMSO in the extracellular solution was held constant at the level used for the highest tested concentration. A holding potential of −80 mV with a 100 ms step to 0 mV was used. Mean current was measured during the step to 0 mV. […] The average mean current from 3 sweeps was calculated and the percent inhibition of each compound was calculated. The percent inhibition as a function of the compound concentration was fit with a Hill equation to derive IC50, slope, minimum parameters, and maximum parameters. If KCNT1 inhibition was less than 50% at the highest tested concentration or if an IC50 could not be calculated, then a percent inhibition was reported in place of the IC50.
In this table, “A” indicates IC50 of less than or equal to 1 μM; “B” indicates inhibition of between 1 μM to 20 μM; and “C” indicates inhibition of greater than or equal to 20 μM.

Row | Compound | IC50 [nM]
1 | CC(NC(=O)c1cc(C(F)(F)F)nn1C)c1cc(-c2ccnc(C(F)(F)F)c2)nn1C (single isomer, unassigned) [Compound 1001] | ≤ 1000
2 | CC(NC(=O)c1cc(C(F)(F)F)nn1C)c1cc(-c2ccncc2)nn1C (single isomer, unassigned) [Compound 1003] | ≥ 20000
3 | CCn1nc(-c2ccnc(C(F)(F)F)c2)cc1C(C)NC(=O)c1cc(C(F)(F)F)nn1C (single isomer, unassigned) [Compound 1004] | ≤ 1000
4 | Cc1cc(-c2cc(C(C)NC(=O)c3cc(C(F)(F)F)nn3C)n(C)n2)ccn1 (single isomer, unassigned) [Compound 1005] | 1000 to 20000
5 | Cc1cc(-c2cc(C(C)NC(=O)c3cc(C(F)(F)F)nn3C)n(C)n2)ccn1 (single isomer, unassigned) [Compound 1006] | 1000 to 20000
6 | CCn1nc(-c2ccnc(C(F)(F)F)c2)cc1C(C)NC(=O)c1cc(C(F)(F)F)nn1C (single isomer, unassigned) [Compound 1007] | ≤ 1000
7 | CC(NC(=O)c1cc(C(F)(F)F)nn1C)c1cc(-c2ccncc2)nn1C (single isomer, unassigned) [Compound 1008] | 1000 to 20000
8 | CC(NC(=O)c1cc(C(F)(F)F)nn1C)c1cc(-c2ccccc2)nn1C (single isomer, unassigned) [Compound 1010] | 1000 to 20000
9 | CC(NC(=O)c1cc(C(F)(F)F)nn1C)c1cc(-c2ccccc2)nn1C (single isomer, unassigned) [Compound 1011] | 1000 to 20000
10 | CC(NC(=O)c1cc(C(F)(F)F)nn1C)c1cc(C(F)(F)F)nn1C (single isomer, unassigned) [Compound 1014] | 1000 to 20000
11 | CC(NC(=O)c1cc(C(F)(F)F)nn1C)c1cc(C(F)(F)F)nn1C (single isomer, unassigned) [Compound 1015] | 1000 to 20000
12 | CC(NC(=O)c1cc(C(F)(F)F)nn1C)c1cc(-c2ccc(CO)nc2)nn1C (stereo not shown) [Compound 1009] | ≥ 20000
13 | Cc1ncc(-c2cc(C(C)NC(=O)c3cc(C(F)(F)F)nn3C)n(C)n2)cn1 (stereo not shown) [Compound 1012] | ≥ 20000
14 | COc1ccc(-c2cc(C(C)NC(=O)c3cc(C(F)(F)F)nn3C)n(C)n2)cn1 (stereo not shown) [Compound 1013] | ≤ 1000
15 | CC(NC(=O)c1cc(C(F)(F)F)nn1C)c1cc(-c2ccc(C#N)nc2)nn1C (stereo not shown) [Compound 1016] | ≥ 20000
16 | Cc1cccc(-c2cc(C(C)NC(=O)c3cc(C(F)(F)F)nn3C)n(C)n2)n1 (stereo not shown) [Compound 1017] | 1000 to 20000
17 | CC(NC(=O)c1cc(C(F)(F)F)nn1C)c1cc(-c2ccc(C(F)(F)F)nc2)nn1C (stereo not shown) [Compound 1018] | 1000 to 20000
18 | Cn1nc(-c2ccnc(C(F)(F)F)c2)cc1CNC(=O)c1cc(C(F)(F)F)nn1C [Compound 1019] | ≤ 1000
19 | CC(NC(=O)c1cc(C(F)(F)F)nn1C)c1cc(-c2ccnc(C(F)(F)F)c2)nn1C (stereo not shown) [Compound 1020] | ≤ 1000
20 | CC(NC(=O)c1cc(C(F)(F)F)nn1C)c1cc(-c2ccc(C#N)cc2)nn1C (stereo not shown) [Compound 1021] | 1000 to 20000

Row | Compound | IC50 [nM]
21 | CC(NC(=O)c1cc(C(F)(F)F)nn1C)c1cc(-c2ccc(C(N)=O)cc2)nn1C (stereo not shown) [Compound 1022] | ≥ 20000
22 | CC(NC(=O)c1cc(C(F)(F)F)nn1C)c1cc(N2CCCCC2)nn1C (stereo not shown) [Compound 1023] | 1000 to 20000
23 | CC(NC(=O)c1cc(C(F)(F)F)nn1C)c1cc(Nc2ccccc2)nn1C (stereo not shown) [Compound 1024] | 1000 to 20000
24 | CC(NC(=O)c1cc(C(F)(F)F)nn1C)c1cc(N(C)c2ccccc2)nn1C (stereo not shown) [Compound 1025] | 1000 to 20000
25 | CC(NC(=O)c1cc(C(F)(F)F)nn1C)c1cc(NC2CCCC2)nn1C (stereo not shown) [Compound 1026] | ≥ 20000
26 | CC(NC(=O)c1cc(C(F)(F)F)nn1C)c1cc(N(C)C2CCCC2)nn1C (stereo not shown) [Compound 1027] | 1000 to 20000
27 | CC(NC(=O)c1cc(C(F)(F)F)nn1C)c1cc(Cc2ccccc2)nn1C (stereo not shown) [Compound 1028] | 1000 to 20000
28 | CCn1nc(-c2ccnc(C(F)(F)F)c2)cc1CNC(=O)c1cc(C(F)(F)F)nn1C [Compound 1029] | ≤ 1000
29 | Cc1c(-c2ccnc(C(F)(F)F)c2)nn(C)c1CNC(=O)c1cc(C(F)(F)F)nn1C [Compound 1030] | ≤ 1000
30 | CC(C)Oc1cc(C(C)NC(=O)c2cc(C(F)(F)F)nn2C)n(C)n1 (stereo not shown) [Compound 1031] | ≥ 20000
31 | CC(NC(=O)c1cc(C(F)(F)F)nn1C)c1cc(Oc2ccccc2)nn1C (stereo not shown) [Compound 1032] | 1000 to 20000
32 | Cn1nc(-c2ccnc(C(F)(F)F)c2)cc1CNC(=O)c1cc(C(F)F)nn1C [Compound 1033] | ≤ 1000
33 | Cn1nc(C(F)F)cc1C(=O)NC1(c2cc(-c3ccnc(C(F)(F)F)c3)nn2C)CC1 [Compound 1034] | ≤ 1000
34 | Cn1nc(C(F)(F)F)cc1C(=O)NC1(c2cc(-c3ccnc(C(F)(F)F)c3)nn2C)CC1 [Compound 1035] | ≤ 1000
35 | COc1cc(-c2cc(CNC(=O)c3cc(C(F)(F)F)nn3C)n(C)n2)ccn1 [Compound 1036] | ≤ 1000
36 | CCOc1cc(-c2cc(CNC(=O)c3cc(C(F)(F)F)nn3C)n(C)n2)ccn1 [Compound 1037] | ≤ 1000
37 | Cn1nc(-c2ccnc(C3CC3)c2)cc1CNC(=O)c1cc(C(F)(F)F)nn1C [Compound 1038] | ≤ 1000
38 | CC(C)c1cc(C(=O)NCc2cc(-c3ccnc(C(F)(F)F)c3)nn2C)n(C)n1 [Compound 1039] | ≤ 1000
39 | Cn1nc(-c2ccnc(C(F)(F)F)c2)cc1CNC(=O)c1ccccc1 [Compound 1040] | ≤ 1000
40 | Cc1cc(-c2cc(CNC(=O)c3cc(C(F)(F)F)nn3C)n(C)n2)c(F)cn1 [Compound 1041] | ≤ 1000
